Experiments:
yeasts = test: Yeast growth inhibition; assay type: cell-based
bacteria = assay type: cell-based
Y. enterocolitica [1] = test: Minimal bactericidal concentration; assay type: cell-based; conditions: reduces plating efficiency more than 99.9%; minimal exposure to light
S. aureus [2] = test: Minimal bactericidal concentration; assay type: cell-based, Staphylococcus aureus; conditions: reduces plating efficiency more than 99.9%; minimal exposure to light
Protocol: Minimal bactericidal concentrations (MBCs) were determined essentially the same way as MICs except that the amount of killing with a particular concentration of porphyrin derivative was determined by plating on solid microbiological media (LB plates or LB+Tween 80). Media were solidified by the incorporation of 1.5% agar (Difco Laboratories). Concentrations of porphyrins that produced 99.9% reduction in bacterial counts were considered bactericidal [Hindler et al. (1994) supra].
MBC were determined by plating bacterial cultures that have been incubate
in the presence of MPs at concentrations higher than MIC. MBC was defined
as a concentration of a particular MP which reduces the plating efficienc
more than 99.9%. Experiments were done with minimal exposure to light
(addition of porphyrins waa done in the presence of artifical light).

M. smegmatis [3] = test: Minimal bactericidal concentration; assay type: cell-based, Mycobacterium smegmatis; conditions: reduces plating efficiency more than 99.9%; minimal exposure to light
Candida albicans = test: MIC 80 microdilution, clinical yeast isolates; assay type: cell-based
Protocol: (§1) MICs of Ga-UPI against selected clinical yeast isolates. Growth was
(§2) scored after 24 and 48 hours of incubation.

Candida glabrata = test: MIC 80 microdilution, clinical yeast isolates; assay type: cell-based
Protocol: as §1, §2

Candida tropicalis = test: MIC 80 microdilution, clinical yeast isolates; assay type: cell-based
Protocol: as §1, §2

Cryptococcus neoformans = test: MIC 80 microdilution, clinical yeast isolates; assay type: cell-based
Protocol: as §1, §2

Candida krusei = test: MIC 80 microdilution, clinical yeast isolates; assay type: cell-based
Candida pillosus = test: MIC 80 microdilution, clinical yeast isolates; assay type: cell-based
Y. enterocolitica [4] = test: Disc diffusion sensitivity test; assay type: cell-based; conditions: disc ~50 μg MP
E. coli = test: Disc diffusion sensitivity test; assay type: cell-based, Escherichia coli; conditions: E. coli; disc ~50 μg MP
P. mirabills = test: Disc diffusion sensitivity test; assay type: cell-based, Proteus mirabilis; conditions: P. mirabilis; disc ~50 μg MP
K. pneumoniae = test: Disc diffusion sensitivity test; assay type: cell-based, Klebsiella pneumoniae; conditions: K. pneumoniae; disc ~50 μg MP
K. oxytoca = test: Disc diffusion sensitivity test; assay type: cell-based, Klebsiella oxytoca; conditions: K. oxytoca; disc ~50 μg MP
Ps. aeruginosa = test: Disc diffusion sensitivity test; assay type: cell-based, Pseudomonas aeruginosa; conditions: disc ~50 μg MP; also: key: -: resistant; N: not determined
C. freundii = test: Disc diffusion sensitivity test; assay type: cell-based, Citrobacter freundii; conditions: C. freundii; disc ~50 μg MP
E. aerogenes = test: Disc diffusion sensitivity test; assay type: cell-based, Enterobacter aerogenes; conditions: E. aerogenes; disc ~50 μg MP
F. menigosepticum = test: Disc diffusion sensitivity test; assay type: cell-based, Flavobacterium meningosepticum; conditions: F. meningosepticum; disc ~50 μg MP
S. aureus [5] = test: Disc diffusion sensitivity test; assay type: cell-based, Staphylococcus aureus; conditions: S. aureus; disc ~50 μg MP
S. pyogenes A = test: Disc diffusion sensitivity test; assay type: cell-based, Streptococcus pyogenes; conditions: disc ~50 μg MP
E. faecalis = test: Disc diffusion sensitivity test; assay type: cell-based, Enterococcus faecalis; conditions: disc ~50 μg MP; also: key: -: resistant; N: not determined
M tuber. H37Rv = test: Disc diffusion sensitivity test; assay type: cell-based, Mycobacterium tuberculosis; conditions: disc ~50 μg MP
M tuber. H37Pa = test: Disc diffusion sensitivity test; assay type: cell-based, Mycobacterium tuberculosis; conditions: disc ~50 μg MP
Y. enterocolitica [6] = test: microbe, parasite or virus in culture; assay type: cell-based
S. aureus [7] = assay type: cell-based, Staphylococcus aureus; conditions: methicillin-resistant S. aureus IR219; Nutrient broth (Table 2)
M. smegmatis [8] = assay type: cell-based, Mycobacterium smegmatis
[9] = test system: Streptococcus pyogenes JRS4; assay type: cell-based; conditions: S. pyogenes JRS4 (Table 4)
M. tuberculosis = assay type: cell-based, Mycobacterium tuberculosis; conditions: pathogenic M. tuberculosis
M. avium = conditions: M. avium

With `O=C(O)CCC1=C(CC(=O)O)C2=Cc3c(CC(=O)O)c(CCC(=O)O)c4[n]3[Ga]([Cl])[n]3c(c(CCC(=O)O)c(CC(=O)O)c3=CC3=NC(=C4)C(CC(=O)O)=C3CCC(=O)O)=CC1=N2` [Ga-UPIII, Ga-uroporphyrin III] the “inhibition of growth of yeast” value (yeasts) was “able to inhibit growth of yeast” and the “antibacterial activity” value (bacteria) was “seriously limited in their antibacterial activities”.

With `O=C(O)CCC1=C(CC(=O)O)C2=NC1=Cc1c(CC(=O)O)c(CCC(=O)O)c3[n]1[Ga]([Cl])[n]1c(c(CCC(=O)O)c(CC(=O)O)c1=CC1=NC(=C3)C(CC(=O)O)=C1CCC(=O)O)=C2` [Ga-UPI, Ga-uroporphyrin I] the “Minimal bactericidal concentration (MBC)” value (Y. enterocolitica [1]) was 10, the “Minimal bactericidal concentration (MBC)” value (S. aureus [2]) was 10 and the “Minimal bactericidal concentration (MBC)” value (M. smegmatis [3]) was 10. The “MIC 80” value (Candida albicans; 97-010, 24 hours) was 2 µg/mL, the “MIC 80” value (Candida albicans; 97-010, 48 hours) was 8 µg/mL and the “MIC 80” value (Candida albicans; 97-012, 24 hours) was 2 µg/mL. The “MIC 80” value (Candida albicans; 97-012, 48 hours) was 8 µg/mL, the “MIC 80” value (Candida albicans; 97-014, 24 hours) was 2 µg/mL and the “MIC 80” value (Candida albicans; 97-014, 48 hours) was 8 µg/mL. The “MIC 80” value (Candida albicans; 97-015, 24 hours) was 2 µg/mL, the “MIC 80” value (Candida albicans; 97-015, 48 hours) was 8 µg/mL and the “MIC 80” value (Candida albicans; 97-031, 24 hours) was 2 µg/mL. For the same compound, the “MIC 80” value (Candida albicans; 97-031, 48 hours) was 16 µg/mL, the “MIC 80” value (Candida glabrata; 97-049, 24 hours) was 8 µg/mL and the “MIC 80” value (Candida glabrata; 97-049, 48 hours) was 32 µg/mL. For the same compound, the “MIC 80” value (Candida glabrata; 97-050, 24 hours) was 8 µg/mL, the “MIC 80” value (Candida glabrata; 97-050, 48 hours) was 16 µg/mL and the “MIC 80” value (Candida glabrata; 97-051, 24 hours) was 8 µg/mL. For the same compound, the “MIC 80” value (Candida glabrata; 97-051, 48 hours) was 32 µg/mL, the “MIC 80” value (Candida glabrata; 97-052, 24 hours) was 8 µg/mL and the “MIC 80” value (Candida glabrata; 97-052, 48 hours) was 32 µg/mL. For the same compound, the “MIC 80” value (Candida glabrata; 97-053, 24 hours) was 8 µg/mL, the “MIC 80” value (Candida glabrata; 97-053, 48 hours) was 16 µg/mL and the “MIC 80” value (Candida tropicalis; 97-054, 24 hours) was 16 µg/mL. The “MIC 80” value (Candida tropicalis; 97-054, 48 hours) was 32 µg/mL, the “MIC 80” value (Candida tropicalis; 97-055, 24 hours) was 8 µg/mL and the “MIC 80” value (Candida tropicalis; 97-055, 48 hours) was 16 µg/mL. The “MIC 80” value (Cryptococcus neoformans; 97-044, 24 hours) was 16 µg/mL, the “MIC 80” value (Cryptococcus neoformans; 97-044, 48 hours) was 16 µg/mL and the “MIC 80” value (Cryptococcus neoformans; 97-045, 24 hours) was 16 µg/mL. The “MIC 80” value (Cryptococcus neoformans; 97-045, 48 hours) was 32 µg/mL, the “MIC 80” value (Cryptococcus neoformans; 97-046, 24 hours) was 16 µg/mL and the “MIC 80” value (Cryptococcus neoformans; 97-046, 48 hours) was 16 µg/mL. For the same compound, the “MIC 80” value (Cryptococcus neoformans; 97-047, 24 hours) was 8 µg/mL, the “MIC 80” value (Cryptococcus neoformans; 97-047, 48 hours) was 16 µg/mL and the “MIC 80” value (Cryptococcus neoformans; 97-048, 24 hours) was 16 µg/mL. The “MIC 80” value (Cryptococcus neoformans; 97-048, 48 hours) was 16 µg/mL, the “MIC 80” value (Candida krusei; 97-058, 24 hours) was 1 µg/mL and the “MIC 80” value (Candida krusei; 97-058, 48 hours) was 4 µg/mL. The “MIC 80” value (Candida krusei; 97-059, 24 hours) was 2 µg/mL, the “MIC 80” value (Candida krusei; 97-059, 48 hours) was 8 µg/mL and the “MIC 80” value (Candida krusei; ATCC-6258, 24 hours) was 1 µg/mL. For the same compound, the “MIC 80” value (Candida krusei; ATCC-6258, 48 hours) was 2 µg/mL, the “MIC 80” value (Candida pillosus; 97-056, 24 hours) was 1 µg/mL and the “MIC 80” value (Candida pillosus; 97-056, 48 hours) was 2 µg/mL. For the same compound, the “MIC 80” value (Candida pillosus; 97-057, 24 hours) was 2 µg/mL, the “MIC 80” value (Candida pillosus; 97-057, 48 hours) was 8 µg/mL and the “inhibition of growth of yeast” value (yeasts) was “able to inhibit growth of yeast”. The “antibacterial activity” value (bacteria) was “seriously limited in their antibacterial activities”.

“Indium (III) protoporphyrin IX chloride [In-PPIX]” was tested, and the “diameter (mm) of the inhibition zone” value (Y. enterocolitica [4]) was 12 mm, the “diameter (mm) of the inhibition zone” value (E. coli) was “-” and the “diameter (mm) of the inhibition zone” value (P. mirabills) was 9 mm. The “diameter (mm) of the inhibition zone” value (K. pneumoniae) was 9 mm, the “diameter (mm) of the inhibition zone” value (K. oxytoca) was 9 mm and the “diameter (mm) of the inhibition zone” value (Ps. aeruginosa) was “-”. The “diameter (mm) of the inhibition zone” value (C. freundii) was 9 mm, the “diameter (mm) of the inhibition zone” value (E. aerogenes) was 9 mm and the “diameter (mm) of the inhibition zone” value (F. menigosepticum) was “-”. The “diameter (mm) of the inhibition zone” value (S. aureus [5]) was 15 mm, the “diameter (mm) of the inhibition zone” value (S. pyogenes A) was 13 mm and the “diameter (mm) of the inhibition zone” value (E. faecalis) was “-”. The “diameter (mm) of the inhibition zone” value (M tuber. H37Rv) was “-”, the “diameter (mm) of the inhibition zone” value (M tuber. H37Pa) was 17 mm and the “Minimal inhibitory concentration (MIC)” value (Y. enterocolitica [6]) was 0.2. For the same compound, the “antibacterial activity” value (Y. enterocolitica [6]) was “inhibitory”, the “Minimal inhibitory concentration (MIC)” value (S. aureus [7]) was 1.6 µg/mL and the “antibacterial activity” value (M. smegmatis [8]; M. smegmatis) was “inhibitory”. The “Minimal inhibitory concentration (MIC)” value (M. smegmatis [8]; M. smegmatis LR222, LB + Tween 80 (Table 2)) was 0.4 µg/mL, the MIC [9] was 0.1 µg/mL and the “sensitivity (preliminary experiments)” value (M. tuberculosis) was “sensitive”. For the same compound, the “Minimal bactericidal concentration (MBC)” value (Y. enterocolitica [1]) was greater than 13, the “Minimal bactericidal concentration (MBC)” value (S. aureus [2]) was greater than 13 and the “Minimal bactericidal concentration (MBC)” value (M. smegmatis [3]) was 10. For the same compound, the “sensitivity (preliminary experiments)” value (M. avium) was “sensitive”.

With `CC1=C(CCC(=O)O)C2=Cc3c(C)c(CCC(=O)O)c4[n]3[Ga]([Cl])[n]3c(c(C)c(CCC(=O)O)c3=CC1=N2)=CC1=NC(=C4)C(C)=C1CCC(=O)O` [Ga-COPI, Ga-coproporphyrin I] the “inhibition of growth of yeast” value (yeasts) was “able to inhibit growth of yeast” and the “antibacterial activity” value (bacteria) was “seriously limited in their antibacterial activities”.
